Experimental findings from PubChem BioAssay AID1259407 (Chemical Carcinogenesis Research Information System (CCRIS), 2018) are described below.

Activity calls are given as the source filed them. No rule for the calls is given here.

In this data set the test system is CCRIS mutagenicity, Ames/micronucleus/aberration tests. In words: CCRIS mutagenicity studies.
Where [1] appears, read: Test System: AMES SALMONELLA TYPHIMURIUM, Strain/Indicator: TA98, Metabolic Activation: NONE, Method: STANDARD PLATE.
Setting [2] is: Test System: AMES SALMONELLA TYPHIMURIUM, Strain/Indicator: TA98, Metabolic Activation: RAT, LIVER, S-9, AROCLOR 1254, Method: STANDARD PLATE.
Where [3] appears, read: Test System: AMES SALMONELLA TYPHIMURIUM, Strain/Indicator: TA100, Metabolic Activation: NONE, Method: STANDARD PLATE.
Where [4] appears, read: Test System: AMES SALMONELLA TYPHIMURIUM, Strain/Indicator: TA100, Metabolic Activation: RAT, LIVER, S-9, AROCLOR 1254, Method: STANDARD PLATE.
The mark [5] stands for this setting: Test System: AMES SALMONELLA TYPHIMURIUM, Strain/Indicator: TA1535, Metabolic Activation: NONE, Method: STANDARD PLATE.
The mark [6] stands for this setting: Test System: AMES SALMONELLA TYPHIMURIUM, Strain/Indicator: TA1535, Metabolic Activation: RAT, LIVER, S-9, AROCLOR 1254, Method: STANDARD PLATE.
Setting [7] is: Test System: AMES SALMONELLA TYPHIMURIUM, Strain/Indicator: TA1537, Metabolic Activation: NONE, Method: STANDARD PLATE.
[8] abbreviates: Test System: AMES SALMONELLA TYPHIMURIUM, Strain/Indicator: TA1537, Metabolic Activation: RAT, LIVER, S-9, AROCLOR 1254, Method: STANDARD PLATE.
The mark [9] stands for this setting: Test System: AMES SALMONELLA TYPHIMURIUM, Strain/Indicator: TA1538, Metabolic Activation: NONE, Method: STANDARD PLATE.
Where [10] appears, read: Test System: AMES SALMONELLA TYPHIMURIUM, Strain/Indicator: TA1538, Metabolic Activation: RAT, LIVER, S-9, AROCLOR 1254, Method: STANDARD PLATE.

In the case of `CCCCCCCCCC/C=C/C1CC(=O)OC1=O` (stereo not given), the mutagenic call by setting is: (Test System: AMES SALMONELLA TYPHIMURIUM, Strain/Indicator: TA98, Metabolic Activation: HAMSTER, LIVER, S-9, AROCLOR 1254, Method: STANDARD PLATE) “inactive; negative”; under setting [1], “inactive; negative”; under setting [2], “inactive; negative”; (Test System: AMES SALMONELLA TYPHIMURIUM, Strain/Indicator: TA100, Metabolic Activation: HAMSTER, LIVER, S-9, AROCLOR 1254, Method: STANDARD PLATE) “inactive; negative”; under setting [3], “inactive; negative”; under setting [4], “inactive; negative”. In addition, the mutagenic call is “inactive; negative” (Test System: AMES SALMONELLA TYPHIMURIUM, Strain/Indicator: TA1535, Metabolic Activation: HAMSTER, LIVER, S-9, AROCLOR 1254, Method: STANDARD PLATE); “inactive; negative” under setting [5]; “inactive; negative” under setting [6]; “inactive; negative” (Test System: AMES SALMONELLA TYPHIMURIUM, Strain/Indicator: TA1537, Metabolic Activation: HAMSTER, LIVER, S-9, AROCLOR 1254, Method: STANDARD PLATE); “inactive; negative” under setting [7]; “inactive; negative” under setting [8]. The mutagenic call is “inactive; negative” (Test System: AMES SALMONELLA TYPHIMURIUM, Strain/Indicator: TA1538, Metabolic Activation: HAMSTER, LIVER, S-9, AROCLOR 1254, Method: STANDARD PLATE); “inactive; negative” under setting [9]; “inactive; negative” under setting [10]; “inactive; negative. reevaluation of results: inconclusive” (Test System: MOUSE LYMPHOMA, Strain/Indicator: L5178Y (TK+/TK-), Metabolic Activation: NONE, Method: SUSPENSION/PLATE); “inactive; negative. reevaluation of results: negative” (Test System: MOUSE LYMPHOMA, Strain/Indicator: L5178Y (TK+/TK-), Metabolic Activation: RAT, LIVER, S-9, AROCLOR 1254, Method: SUSPENSION/PLATE).

In the case of `O=[N+]([O-])c1ccc2c(c1)cc([N+](=O)[O-])c1ccccc12`, the mutagenic call reads like this: (Test System: AMES SALMONELLA TYPHIMURIUM, Strain/Indicator: TA98(1,8-DNP6), Metabolic Activation: NONE, Method: STANDARD PLATE) “active; positive”; (Test System: AMES SALMONELLA TYPHIMURIUM, Strain/Indicator: TA98(NR), Metabolic Activation: NONE, Method: STANDARD PLATE) “active; positive”; under setting [1], “active; positive”; under setting [3], “active; positive”; (Test System: AMES SALMONELLA TYPHIMURIUM, Strain/Indicator: YG1021, Metabolic Activation: NONE, Method: STANDARD PLATE) “active; positive”; (Test System: AMES SALMONELLA TYPHIMURIUM, Strain/Indicator: YG1024, Metabolic Activation: NONE, Method: STANDARD PLATE) “active; positive”. The mutagenic call runs as follows: (Test System: AMES SALMONELLA TYPHIMURIUM, Strain/Indicator: YG1026, Metabolic Activation: NONE, Method: STANDARD PLATE) “active; positive”; (Test System: AMES SALMONELLA TYPHIMURIUM, Strain/Indicator: YG1029, Metabolic Activation: NONE, Method: STANDARD PLATE) “active; positive”.

In the case of `CN(C)CCNC(=O)c1cccc2nc3ccccc3nc12`, under setting [7], the mutagenic call is “active; positive”.

As to `CC(C)NCC1CCc2cc(CO)c([N+](=O)[O-])cc2N1` (stereo not given), the mutagenic call by setting is: under setting [1], “active; positive”; (Test System: AMES SALMONELLA TYPHIMURIUM, Strain/Indicator: TA98, Metabolic Activation: RAT, LIVER, S-9, AROCLOR 1254 OR PHENOBARBITOL, Method: STANDARD PLATE) “active; positive”; (Test System: AMES SALMONELLA TYPHIMURIUM, Strain/Indicator: TA100(FR1), Metabolic Activation: NONE, Method: STANDARD PLATE) “inactive; negative”; (Test System: AMES SALMONELLA TYPHIMURIUM, Strain/Indicator: TA100(FR1), Metabolic Activation: RAT, LIVER, S-9, PHENOBARBITAL AND 3-METHYLCHOLANTHRENE, Method: STANDARD PLATE) “inactive; negative”; (Test System: AMES SALMONELLA TYPHIMURIUM, Strain/Indicator: TA100, Metabolic Activation: RAT, LIVER, S-9, AROCLOR 1254 OR PHENOBARBITOL, Method: STANDARD PLATE) “active; positive”; (Test System: AMES SALMONELLA TYPHIMURIUM, Strain/Indicator: TA100, Metabolic Activation: RAT, LIVER, S-9, PHENOBARBITAL AND 3-METHYLCHOLANTHRENE, Method: STANDARD PLATE) “inactive; negative”. Further, the mutagenic call was “inactive; negative” under setting [5]; “inactive; negative” (Test System: AMES SALMONELLA TYPHIMURIUM, Strain/Indicator: TA1535, Metabolic Activation: RAT, LIVER, S-9, AROCLOR 1254 OR PHENOBARBITOL, Method: STANDARD PLATE); “inactive; negative” under setting [7]; “inactive; negative” (Test System: AMES SALMONELLA TYPHIMURIUM, Strain/Indicator: TA1537, Metabolic Activation: RAT, LIVER, S-9, AROCLOR 1254 OR PHENOBARBITOL, Method: STANDARD PLATE); “inactive; negative” under setting [9]; “inactive; negative” (Test System: AMES SALMONELLA TYPHIMURIUM, Strain/Indicator: TA1538, Metabolic Activation: RAT, LIVER, S-9, AROCLOR 1254 OR PHENOBARBITOL, Method: STANDARD PLATE). Besides, the mutagenic call by setting is: (Test System: CHINESE HAMSTER V-79, Strain/Indicator: V-79/6-THIOGUANINE, Metabolic Activation: NONE) “active; positive”; (Test System: CHINESE HAMSTER V-79, Strain/Indicator: V-79/6-THIOGUANINE, Metabolic Activation: RAT, LIVER, HEPATOCYTES) “active; positive”; (Test System: CHINESE HAMSTER V-79, Strain/Indicator: V-79/OUABAIN, Metabolic Activation: NONE) “active; positive”; (Test System: CHINESE HAMSTER V-79, Strain/Indicator: V-79/OUABAIN, Metabolic Activation: RAT, LIVER, HEPATOCYTES) “active; positive”.

For the compound `CC(=O)Oc1cccc2cccnc12`, for the setting “Test System: AMES SALMONELLA TYPHIMURIUM, Strain/Indicator: TA100, Metabolic Activation: S-9, Method: PREINCUBATION”, the mutagenic call is “inactive; negative”.

Consider `CN(C)c1ccc([C@H]2C[C@@]3(C)[C@@H](CC[C@@]3(O)/C=C\CO)[C@@H]3CCC4=CC(=O)CCC4=C32)cc1`, for which the mutagenic call (End Point: IN VITRO CHROMOSOMAL ABERRATIONS, Test System: HUMAN PERIPHERAL LYMPHOCYTES, Metabolic Activation: NONE) was “inactive; negative”; the mutagenic call (End Point: IN VITRO CHROMOSOMAL ABERRATIONS, Test System: HUMAN PERIPHERAL LYMPHOCYTES, Metabolic Activation: RAT, LIVER, S-9, AROCLOR 1254) was “inactive; negative”; the mutagenic call under setting [1] was “inactive; negative”; the mutagenic call under setting [2] was “inactive; negative”; the mutagenic call under setting [3] was “inactive; negative”; the mutagenic call under setting [4] was “inactive; negative”. The mutagenic call is, setting by setting: under setting [5], “inactive; negative”; under setting [6], “inactive; negative”; under setting [7], “inactive; negative”; under setting [8], “inactive; negative”; under setting [9], “inactive; negative”; under setting [10], “inactive; negative”.
